The values below come from PMC9977398, “Next-generation membrane-active glycopeptide antibiotics that also inhibit bacterial cell division” (Chemical Science, 2023).

Converted amounts (≈) assume the structure as drawn. Read-outs that look alike come from different tables or passages of the source.

In general, HC50 refers to the concentration giving 50% haemolysis.

Data set [1] deals with VRE (VanA phenotype). Also on record: method as in PMID 27663982, PMID 24846441, PMID 14972384. Particulars: cited from earlier work.
In data set [2] the test system is human erythrocytes. In words: Haemolysis assay. It counts as cell-based. Here is the method:
To select the lead compounds, the toxicity of 1–10 was tested against human erythrocytes as their hemolytic activity (HC50). The HC50 is determined as the concentration at which 50% of the compound treated cells are lysed. […] The HC50 for compounds 6–8 was also greater than 500 μM. […] Based on the in vitro activity and hemolysis studies, VanQbiph (4) from the aryl-substituted compounds and VanQAmC10 (8) from the alkyl-chain substituted compounds were selected for further investigations. […] VanQAmC10 (8) was additionally non-toxic to RAW 264.7 cells up to 40 μM and was therefore taken forward in vivo investigation.[18]
50 μL of serially diluted compound was added into 96 well microtiter plates. Freshly drawn, heparanized human blood was centrifuged down to obtain the erythrocytes and re-suspended to 5 vol % in PBS (pH 7.4). 150 μL of the erythrocyte suspension was added to the serially diluted compounds (from 500 µM to 2 µM). One set without compound and other with 50 μL of 1 vol % solution of Triton X-100 were kept as controls. The plates were incubated at 37 °C for 1 h followed by centrifugation at 3,500 rpm for 5 min. 100 μL of the supernatant from each well were transferred into fresh microtiter plates, and A540 was measured.
% haemolysis = (A - A0)/(Atotal -A0) × 100, where A is the absorbance of the test well, A 0 the absorbance of the negative controls (without compound), and A total the absorbance of 100 % hemolysis wells (with Triton X -100), all at 540 nm. […]

The test system of data set [3] is VRSA 4 (vancomycin-resistant S. aureus). In words: MIC determination, micro-dilution broth. It counts as cell-based. The following applies: Staphylococcus aureus, read-out: Minimum inhibitory concentration, VRSA 4. As for the experimental part:
(§1) The increase in the carbon content of substituted moieties from six (1) to seven (2 and 3) to ten (5) to twelve (4), increased activity. […]
(§2) Test compound was assayed in a micro -dilution broth format as per the CLSI guideline. The bacterial freeze dried stock samples were stored at -80 °C. About 5 μL of these stocks were added to 3 mL of the respective broth and the culture was grown for 6 h at 37°C with prior to the experiments. This 6 h grown culture was diluted to give effective cell concentration of 10 5 CFU/mL which was then used for determining MIC. Compounds were serially diluted 2 -fold, in sterile millipore water and 50 μL of these serial dilutions were added to the wells of 96 well plate followed by the addition of about 150 μL of bacterial solution. The plates were then incubated for 18-24 h at 37 °C. The O.D. value at 600 nm was recorded using TECAN (Infinite series, M200 pro) Plate Reade r. Each concentration had triplicate values and the whole experiment was done at least twice and the MIC value was determined by taking the average of triplicate O. D. values for each concentration and plotting it against concentration. The data was then subjected to sigmoidal fitting. From the curve the MIC value was determined, as the point where the O. D. was similar to that of control having no bacteria.
On the technique in general: Broth dilution looks for growth in wells or tubes with falling amounts of substance.

Data set [4] relates to PA R590 (MDR strain of P. aeruginosa). In words: MIC determination, micro-dilution broth. The format is cell-based. The following applies: Pseudomonas aeruginosa; read-out: Minimum inhibitory concentration, PA R590. As for the experimental part:
as §1, §2

For data set [5], the system named is VRE 51559 (vancomycin-resistant E. faecium, VanA phenotype, ATCC 51559). Description: MIC determination, micro-dilution broth. It counts as cell-based. Particulars: Enterococcus; read-out: Minimum inhibitory concentration, VRE 51559. Here is the method:
as §1, §2

Data set [6] has as its system MRSA, methicillin-resistant S. aureus (ATCC 33591). Description: MIC determination, micro-dilution broth. It counts as cell-based. The following applies: Staphylococcus aureus; MRSA ATCC 33591; read-out: Minimum inhibitory concentration, MRSA. Here is the method: as §1, §2
The test system of data set [7] is VRSA 1 (vancomycin-resistant S. aureus). In words: MIC determination, micro-dilution broth. It counts as cell-based. The following applies: Staphylococcus aureus, read-out: Minimum inhibitory concentration, VRSA 1. Here is the method:
as §1, §2

The test system of data set [8] is AB R674 (A. baumannii). Description: MIC determination, micro-dilution broth. It counts as cell-based. The following applies: Acinetobacter baumannii; read-out: Minimum inhibitory concentration, AB R674. Here is the method: as §1, §2
Data set [9] has as its system VRE 51575 (vancomycin-resistant E. faecalis, VanB phenotype, ATCC 51575). In words: MIC determination, micro-dilution broth. It counts as cell-based. The following applies: Enterococcus; read-out: Minimum inhibitory concentration, VRE 51575. Here is the method: as §1, §2
For data set [10], the system named is AB 1425 (A. baumannii MTCC 1425). Description: MIC determination, micro-dilution broth. The format is cell-based. Particulars: Acinetobacter baumannii, MTCC1425; read-out: Minimum inhibitory concentration, AB 1425. As for the experimental part: as §1, §2
Data set [11] concerns VRSA 12 (vancomycin-resistant S. aureus). Description: MIC determination, micro-dilution broth. The following applies: Staphylococcus aureus, read-out: Minimum inhibitory concentration, VRSA 12. The format is cell-based. As for the experimental part: as §1, §2

Turning to `CN[C@H](CC(C)C)C(=O)N[C@H]1C(=O)N[C@@H](CC(N)=O)C(=O)N[C@H]2C(=O)N[C@H]3C(=O)N[C@H](C(=O)N[C@H](C(=O)O)c4cc(O)cc(O)c4-c4cc3ccc4O)[C@H](O[C@H]3C[C@](C)(N)[C@@H](O)[C@H](C)O3)c3ccc(c(Cl)c3)Oc3cc2cc(c3O[C@@H]2O[C@H](CO)[C@@H](O)[C@H](O)[C@H]2O[C@H]2C[C@](C)(NCc3ccc(-c4ccc(Cl)cc4)cc3)[C@@H](O)[C@H](C)O2)Oc2ccc(cc2Cl)[C@H]1O` [oritavancin], the “MIC against VRE (VanA phenotype)” value in data set [1] was 0.14 µM (≈ 0.251 µg/mL).
Take `CNC(CC(C)C)C(=O)NC1C(=O)NC(CC(N)=O)C(=O)NC2C(=O)NC3C(=O)NC(C(=O)NC(C(=O)NCCC[N+](C)(C)Cc4ccccc4)c4cc(O)cc(O)c4-c4cc3ccc4O)C(O)c3ccc(c(Cl)c3)Oc3cc2cc(c3OC2OC(CO)C(O)C(O)C2OC2CC(C)(N)C(O)C(C)O2)Oc2ccc(cc2Cl)C1O` (stereo not drawn) [VanQph (1)]: in data set [2] (human, 1 h, pH 7.4), the HC50 is greater than 500 µM. In addition, the MIC was greater than 30 µM in data set [3]; greater than 30 µM in [4]; greater than 30 µM in data set [5]; 1 µM in data set [6]; greater than 30 µM in [7]; 25.5 µM in data set [8]. For the same compound, the MIC in data set [9], in data set [10] and in [11] was greater than 30 µM each time.
As for `CNC(CC(C)C)C(=O)NC1C(=O)NC(CC(N)=O)C(=O)NC2C(=O)NC3C(=O)NC(C(=O)NC(C(=O)NCCC[N+](C)(C)Cc4ccc(C)cc4)c4cc(O)cc(O)c4-c4cc3ccc4O)C(O)c3ccc(c(Cl)c3)Oc3cc2cc(c3OC2OC(CO)C(O)C(O)C2OC2CC(C)(N)C(O)C(C)O2)Oc2ccc(cc2Cl)C1O` (stereo not drawn) [VanQtol (2)], the 50% haemolytic concentration (HC50) in data set [2] (human, 1 h, pH 7.4) is greater than 500 µM. Moreover, the MIC was 16 µM in [3]; greater than 30 µM in data set [4]; greater than 30 µM in [5]; 1 µM in [6]; greater than 30 µM in [7]; 25.3 µM in [8]. In addition, the MIC in [9], in [10] and in data set [11] was greater than 30 µM each time.
In [2] (human, 1 h, pH 7.4), `CCCCCCNC(=O)C[N+](C)(C)CCCNC(=O)C1NC(=O)C2NC(=O)C(NC(=O)C3NC(=O)C(CC(N)=O)NC(=O)C(NC(=O)C(CC(C)C)NC)C(O)c4ccc(c(Cl)c4)Oc4cc3cc(c4OC3OC(CO)C(O)C(O)C3OC3CC(C)(N)C(O)C(C)O3)Oc3ccc(cc3Cl)C2O)c2ccc(O)c(c2)-c2c(O)cc(O)cc21` (stereo not drawn) [VanQAmC6 (6)] yielded a 50% haemolytic concentration (HC50) greater than 500 µM. The MIC in data set [3] is 6.3 µM; in data set [4] it was 12.5 µM; in [5] it was 25 µM; in data set [6], 0.8 µM; in data set [7], greater than 30 µM; in data set [8] it was 12.5 µM. The MIC is greater than 30 µM in data set [9], 25 µM in data set [10] and greater than 30 µM in [11].
In the case of `CNC(CC(C)C)C(=O)NC1C(=O)NC(CC(N)=O)C(=O)NC2C(=O)NC3C(=O)NC(C(=O)NC(C(=O)NCCC[N+](C)(C)Cc4ccc(C(F)(F)F)cc4)c4cc(O)cc(O)c4-c4cc3ccc4O)C(O)c3ccc(c(Cl)c3)Oc3cc2cc(c3OC2OC(CO)C(O)C(O)C2OC2CC(C)(N)C(O)C(C)O2)Oc2ccc(cc2Cl)C1O` (stereo not drawn) [VanQphCF3 (3)], the concentration for 50% haemolysis (HC50) in data set [2] (human, 1 h, pH 7.4) was greater than 500 µM. For the same compound, the MIC in data set [3] was 15.8 µM; in data set [4] it was 24.6 µM; in [5], greater than 30 µM; in [6], 1 µM; in data set [7] it was greater than 30 µM; in data set [8] it was 24.6 µM. Besides, the MIC in data set [9], in [10] and in data set [11] was greater than 30 µM in each case.
For `CCCCCCCCCCNCCN[C@@]1(C)C[C@H](O[C@H]2[C@H](Oc3c4cc5cc3Oc3ccc(cc3Cl)[C@@H](O)[C@@H](NC(=O)[C@@H](CC(C)C)NC)C(=O)N[C@@H](CC(N)=O)C(=O)N[C@H]5C(=O)N[C@H]3C(=O)N[C@H](C(=O)N[C@H](C(=O)O)c5cc(O)c(CNCP(=O)(O)O)c(O)c5-c5cc3ccc5O)[C@H](O)c3ccc(c(Cl)c3)O4)O[C@H](CO)[C@@H](O)[C@@H]2O)O[C@@H](C)[C@H]1O` [telavancin], in data set [1], the “MIC against VRE (VanA phenotype)” value is 4 µM (≈ 7.02 µg/mL).
`CNC(CC(C)C)C(=O)NC1C(=O)NC(CC(N)=O)C(=O)NC2C(=O)NC3C(=O)NC(C(=O)NC(C(=O)NCCC[N+](C)(C)Cc4cccc5ccccc45)c4cc(O)cc(O)c4-c4cc3ccc4O)C(O)c3ccc(c(Cl)c3)Oc3cc2cc(c3OC2OC(CO)C(O)C(O)C2OC2CC(C)(N)C(O)C(C)O2)Oc2ccc(cc2Cl)C1O` (stereo not drawn) [VanQnaph (5)]: the HC50 in data set [2] (human, 1 h, pH 7.4) was greater than 500 µM. The MIC was 3.9 µM in data set [3]; greater than 30 µM in data set [4]; 25 µM in data set [5]; 1 µM in data set [6]; greater than 30 µM in data set [7]; 24.8 µM in data set [8]. Further, the figures for the MIC in [9], in data set [10] and in [11] were 25 µM, greater than 30 µM and greater than 30 µM, respectively.
For the compound `CCCCCCCCCCCCCCNC(=O)C[N+](C)(C)CCCNC(=O)C1NC(=O)C2NC(=O)C(NC(=O)C3NC(=O)C(CC(N)=O)NC(=O)C(NC(=O)C(CC(C)C)NC)C(O)c4ccc(c(Cl)c4)Oc4cc3cc(c4OC3OC(CO)C(O)C(O)C3OC3CC(C)(N)C(O)C(C)O3)Oc3ccc(cc3Cl)C2O)c2ccc(O)c(c2)-c2c(O)cc(O)cc21` (stereo not drawn) [VanQAmC14 (10)], the HC50 entry is “caused hemolysis” in data set [2] and 150 µM in data set [2] (human, 1 h, pH 7.4). In addition, the MIC in data set [3] was determined as 1.5 µM; in data set [4] it was 6.3 µM; in [5] it was 1.5 µM; in data set [6] it was 6.25 µM; in [7] it was 3 µM; in data set [8], 12.5 µM. Besides, the MIC in data set [9] was 3.1 µM; in data set [10] it was 6.3 µM; in data set [11], 3 µM.
With `CCCCCCCCCCCCNC(=O)C[N+](C)(C)CCCNC(=O)C1NC(=O)C2NC(=O)C(NC(=O)C3NC(=O)C(CC(N)=O)NC(=O)C(NC(=O)C(CC(C)C)NC)C(O)c4ccc(c(Cl)c4)Oc4cc3cc(c4OC3OC(CO)C(O)C(O)C3OC3CC(C)(N)C(O)C(C)O3)Oc3ccc(cc3Cl)C2O)c2ccc(O)c(c2)-c2c(O)cc(O)cc21` (stereo not drawn) [VanQAmC12 (9)], the HC50 result in data set [2] is “caused hemolysis”; in data set [2] (human, 1 h, pH 7.4) it was 350 µM. The MIC in data set [3] was 0.7 µM; in data set [4] it was 6.3 µM; in data set [5], 1.5 µM; in data set [6] it was 3.12 µM; in [7] it was 1.5 µM; in data set [8] it was 6.3 µM. Besides, the values for the MIC in [9], in data set [10] and in data set [11] were 3.1 µM, 6.3 µM and 3 µM, respectively.
`CCCCCCCCNC(=O)C[N+](C)(C)CCCNC(=O)C1NC(=O)C2NC(=O)C(NC(=O)C3NC(=O)C(CC(N)=O)NC(=O)C(NC(=O)C(CC(C)C)NC)C(O)c4ccc(c(Cl)c4)Oc4cc3cc(c4OC3OC(CO)C(O)C(O)C3OC3CC(C)(N)C(O)C(C)O3)Oc3ccc(cc3Cl)C2O)c2ccc(O)c(c2)-c2c(O)cc(O)cc21` (stereo not drawn) [VanQAmC8 (7)]: in data set [2] (human, 1 h, pH 7.4), the HC50 is greater than 500 µM. Moreover, the MIC was 3.1 µM in data set [3]; 6.3 µM in data set [4]; 12.5 µM in data set [5]; 0.8 µM in data set [6]; 3.1 µM in [7]; 12.5 µM in data set [8]. Moreover, the results for the MIC in [9], in [10] and in data set [11] were 25 µM, 12.5 µM and greater than 30 µM, respectively.
